Test results taken from the supplement of paper PMC8612539.
≈ marks a conversion by molar mass, not a printed value.

System: Histophilus somni
Assay: minimum inhibitory concentration (MIC)
Experimental: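 Broth microdilution MIC (Sensititre BOPO7F bovine plate, CLSI methods) of 19 antimicrobials against field isolates of P. multocida, M. haemolytica, H. somni (deep nasopharyngeal swabs) and E. coli, Enterococcus spp. (rectal swabs) from weaned dairy heifers. Incubation 16-24 h at 35 C. MIC is the lowest concentration preventing visible growth. Values with <= or > lie at the tested range limits. Trimethoprim-sulfamethoxazole is given as the trimethoprim component of a 1:19 mixture.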

CCCNC[C@]1(O)[C@H](C)O[C@@H](O[C@H]2[C@H](C)[C@@H](O[C@@H]3O[C@H](C)C[C@H](N(C)C)[C@H]3O)[C@](C)(O)C[C@@H](C)CN[C@H](C)[C@@H](O)[C@](C)(O)[C@@H](CC)OC(=O)[C@@H]2C)C[C@@]1(C)OC [Tulathromycin]
Details	minimum inhibitory concentration [µg/mL]
isolate (source animal id): 3	≤ 8
isolate (source animal id): 4	≤ 8
isolate (source animal id): 7	≤ 8
isolate (source animal id): 14	≤ 8
isolate (source animal id): 15	≤ 8
isolate (source animal id): 17	≤ 8
isolate (source animal id): 18	≤ 8
isolate (source animal id): 20	≤ 8
isolate (source animal id): 23	≤ 8
isolate (source animal id): 45	≤ 8
isolate (source animal id): 53	≤ 8
isolate (source animal id): 83	≤ 8
isolate (source animal id): 88	≤ 8
isolate (source animal id): 92	16 (≈ 19.8 µM)
isolate (source animal id): 93	≤ 8
isolate (source animal id): 99	≤ 8
isolate (source animal id): 100	16 (≈ 19.8 µM)
isolate (source animal id): 105	≤ 8
isolate (source animal id): 107	≤ 8
isolate (source animal id): 108	≤ 8
isolate (source animal id): 109	≤ 8
isolate (source animal id): 110	16 (≈ 19.8 µM)
isolate (source animal id): 117	≤ 8
isolate (source animal id): 121	≤ 8
isolate (source animal id): 123	≤ 8
isolate (source animal id): 124	≤ 8
isolate (source animal id): 127	≤ 8
isolate (source animal id): 128	≤ 8
isolate (source animal id): 130	16 (≈ 19.8 µM)
isolate (source animal id): 132	≤ 8
isolate (source animal id): 135	≤ 8
isolate (source animal id): 140	≤ 8
isolate (source animal id): 141	≤ 8
isolate (source animal id): 142	> 64
isolate (source animal id): 144	≤ 8
isolate (source animal id): 146	16 (≈ 19.8 µM)
isolate (source animal id): 147	> 64
isolate (source animal id): 151	≤ 8
isolate (source animal id): 153	16 (≈ 19.8 µM)
isolate (source animal id): 154	> 64
isolate (source animal id): 156	> 64
isolate (source animal id): 157	16 (≈ 19.8 µM)
isolate (source animal id): 176	≤ 8
isolate (source animal id): 183	≤ 8
isolate (source animal id): 186	≤ 8
isolate (source animal id): 196	≤ 8
isolate (source animal id): 198	≤ 8
isolate (source animal id): 200	16 (≈ 19.8 µM)
isolate (source animal id): 206	≤ 8
isolate (source animal id): 208	≤ 8
isolate (source animal id): 210	≤ 8
isolate (source animal id): 212	≤ 8
isolate (source animal id): 215	≤ 8
isolate (source animal id): 216	16 (≈ 19.8 µM)
isolate (source animal id): 218	≤ 8
isolate (source animal id): 219	≤ 8
isolate (source animal id): 224	≤ 8
isolate (source animal id): 228	≤ 8
isolate (source animal id): 230	≤ 8
isolate (source animal id): 233	≤ 8
isolate (source animal id): 238	≤ 8
isolate (source animal id): 239	≤ 8
isolate (source animal id): 241	≤ 8
isolate (source animal id): 242	≤ 8
isolate (source animal id): 243	≤ 8
isolate (source animal id): 245	≤ 8
isolate (source animal id): 246	≤ 8
isolate (source animal id): 247	≤ 8
isolate (source animal id): 248	≤ 8
isolate (source animal id): 250	≤ 8
isolate (source animal id): 251	≤ 8
isolate (source animal id): 252	≤ 8
isolate (source animal id): 254	≤ 8
isolate (source animal id): 258	≤ 8
isolate (source animal id): 259	≤ 8
isolate (source animal id): 262	≤ 8
isolate (source animal id): 264	≤ 8
isolate (source animal id): 265	≤ 8
isolate (source animal id): 266	≤ 8
isolate (source animal id): 267	≤ 8
isolate (source animal id): 269	≤ 8
isolate (source animal id): 271	≤ 8
isolate (source animal id): 272	≤ 8
isolate (source animal id): 274	≤ 8
isolate (source animal id): 276	≤ 8
isolate (source animal id): 278	≤ 8
isolate (source animal id): 280	≤ 8
isolate (source animal id): 281	≤ 8
isolate (source animal id): 283	≤ 8
isolate (source animal id): 288	≤ 8
isolate (source animal id): 291	≤ 8
isolate (source animal id): 292	≤ 8
isolate (source animal id): 296	≤ 8
isolate (source animal id): 306	≤ 8
isolate (source animal id): 336	16 (≈ 19.8 µM)
isolate (source animal id): 337	16 (≈ 19.8 µM)
isolate (source animal id): 341	≤ 8
